Four compounds from patent US20240335431A1, “1-H-PYRROLO[2,3-c]PYRIDINE COMPOUNDS” (Acerta Pharma B.V., priority 2023, published 2024) can be followed below.

One data set deals with Menin protein (Homo sapiens, UniProt O00255, DEL460-519). Description: Menin/MLL fluorescence polarization (FP) assay. Format: binding. The following applies: Menin 2 nM, cRho110-Ahx-MBM1/MBM2 peptide 1 nM. How it is done: Compounds were tested in a biochemical binding assay using Menin protein at 2 nM (N6his-tev-Menin_4i80, PB-20-1459) and the substrate cRho110-Ahx-MBM1/MBM2 peptide (UbiQ, UbiQ-Q20201030; cRh110-Ahx-[…]-QRVPALLLPPG-NH2) at 1 nM.
Menin protein, sequence (O00255 with tags, fused parts or gaps DEL460-519): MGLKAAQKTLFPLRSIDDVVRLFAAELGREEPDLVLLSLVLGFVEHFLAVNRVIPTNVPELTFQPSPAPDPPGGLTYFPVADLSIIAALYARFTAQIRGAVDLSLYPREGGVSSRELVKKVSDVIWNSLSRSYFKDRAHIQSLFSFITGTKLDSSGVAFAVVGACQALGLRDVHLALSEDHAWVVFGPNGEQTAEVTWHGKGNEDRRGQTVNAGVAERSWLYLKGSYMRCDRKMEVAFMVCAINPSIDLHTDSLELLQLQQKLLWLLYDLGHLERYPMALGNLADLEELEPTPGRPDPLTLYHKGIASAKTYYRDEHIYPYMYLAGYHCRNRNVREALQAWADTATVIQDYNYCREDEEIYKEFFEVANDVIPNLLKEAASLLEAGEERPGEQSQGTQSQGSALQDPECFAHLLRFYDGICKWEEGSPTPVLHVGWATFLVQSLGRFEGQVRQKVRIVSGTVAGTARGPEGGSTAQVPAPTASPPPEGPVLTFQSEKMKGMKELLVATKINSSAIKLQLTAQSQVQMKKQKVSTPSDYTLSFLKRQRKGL
384 Low volume black plates (Corning #4514) were used. 5 μL/well compound or 3% DMSO was added at 10-fold serial dilutions in DMSO from 10 μM. 5 μL/well cRho110-Ahx-MBM1/MBM2 peptide or binding buffer (50 mM Tris pH 7.5, 50 mM NaCl, 1 mM TCEP, 0.01% BGG, 0.01% Brij-35) was added to all wells. 5 μL/well Menin protein or binding buffer (50 mM Tris pH 7.5, 50 mM NaCl, 1 mM TCEP, 0.01% BGG, 0.01% Brij-35) was added to all wells. Plates were read on an EnVision plate reader (Perkin Elmer) with excitation at 480 nm and emission at 535 nm P+S, and measured every 5 minutes for 180 minutes.
Data were analyzed in Genedata Screener®. IC50 values were determined by plotting % inhibition versus log compound concentration and using a one site dose response model. Raw data signals were normalized using 1% DMSO no Menin as 100% inhibitor control and 1% DMSO with Menin and no inhibitor as 0% inhibitor control.

Another data set has as its system HEL cells. The experiment in a line: Proliferation assay, HEL control cell line (CellTiter-Glo, 7 days). Format: cell-based, human. As to the method: (§1) The anti-proliferative effect of compounds was tested in human leukaemia cell lines. The cell lines […] and MV4; 11 each harbor an MLL translocation expressing the MLL fusion proteins MLL-AF9 and MLL-AF4, respectively. Each also express the wildtype protein from the second allele. OCI-AML3 cells carrying the NPM1c gene mutation were also tested.
(§2) MOLM-13 and HEL cells were cultured in RPMI 1640 (Gibco) supplemented with 10% FBS (Gibco) and 1% Pen/Strep (Gibco). MV4; 11 cells were cultured in IMDM (Gibco) supplemented with 10% FBS (Gibco) and 1% Pen/Strep (Gibco). OCI-AML3 cells were cultured in MEMa (Gibco) supplemented with 20% FBS (Gibco) and 1% Pen/Strep (Gibco).
(§3) To assess proliferative effects, 125 MOLM-13 cells, 300 MV4; 11 cells, 75 OCI-AML3 cells, and 200 HEL cells were seeded in 40 μL media per well in 384-well ViewPlates (Perkin Elmer, 6007480). Cell seeding numbers were chosen based on growth curves to ensure linear growth throughout the experiments. Test compounds were added at 3.16-fold serial dilutions in DMSO from […] and DMSO content was normalized to 0.1%. Cells were incubated for 7 days at 37° C. and 5% CO2. A day 0 plate was seeded for each cell line and used as a standard control.
(§4) To measure cell viability, CellTiter-Glo 2.0 (Promega, G9242) luminescent growth indicator was used. 10 μL CellTiter-Glo reagent was added per well. Plates were placed on a plate shaker for 2 minutes in the dark and left to incubate off the shaker for another 8 minutes in the dark, for a total of 10 minutes. Plates were read using an EnVision plate reader (Perkin Elmer) using the Luminescence aperture and a measurement time of 0.1 second.
(§5) Data were analyzed in Genedata Screener®. IC50 values were determined by plotting % inhibition versus log compound concentration and using a one site dose response model. Raw data signals were normalized using 0.1% DMSO media only as background control, 0.1% DMSO with cells no compound as 100% viability (maximum signal), and day 0 0.1% DM with cells no compound as 0% viability (minimum signal).

Data set [1] can be described thus: Human hepatocyte intrinsic clearance assay. Format: in vitro ADME. Conditions: human hepatocytes. How it is done: Human hepatocytes (LiverPool™ 10-Donor Human hepatocytes (Mixed Gender, PEG-free, Product No. S01205, 5 million cells per vial) were obtained from BioreclamationIVT. DMSO was sourced from Solarbio S&T Co Ltd. Leibovitz's L-15 Medium, Williams' Medium E, GlutaMAX™-1 (100×), HEPES, DPBS (10×) and Human Recombinant Insulin Solution were purchased from Gibco. Isotonic Percoll Solution was purchased from GE Healthcare. Fetal Bovine Serum (FBS) was purchased from Corning.
10 mM dexamethasone stock solution was prepared by dissolving 3.9 mg dexamethasone in 1 mL of DMSO. An Isotonic Percoll Solution was prepared by dilution of Percoll with DPBS (10×). 15 mL of Isotonic Percoll Solution (90% Percoll/10% DPBS) was added to 31.25 mL William's E medium containing 500 mL of GlutaMAX™-1 (100×), 750 mL of 1M HEPES, 2.5 mL of 5% FBS, 50 mL of 4 mg/mL Human Recombinant Insulin Solution and 5 mL of the 10 mM dexamethasone stock.
2 mL of 10 mM DMSO stock solutions of test compound were added to 198 mL acetonitrile to produce 100 mmol/L concentration.
The human hepatocyte vial was thawed at 37° C. in a waterbath. Once thawed, contents were poured into a 50 mL conical tube and centrifuged at 100 g for 10 minutes. The thawing medium was poured out and 4 mL L-15 medium was added. The tube was gently shaken to resuspend the hepatocytes and cells were counted with an appropriate cell counter. 247.5 mL of the hepatocyte suspension was transferred into each well of the plate and pre-warmed at 600 rpm and 50° C. to enable the temperature to rise to 37° C.
2.5 mL of the […] test compound solution was added to initiate the reaction (final concentration […]) and incubated at 37° C. with shaking at 900 rpm. At 0.5, 5, 15, 30, 45, 60, 80, 100 and 120 minutes, 20 mL was taken into a quenching solution of acetonitrile containing internal standards. The mix was vortexed at 800 rpm for 2 minutes followed by centrifugation for 20 minutes at 4000 rpm at 4° C. 40 mL of supernatant was transferred into a 96 well analysis plate containing 160 mL of water in each well. The analysis plate was shaken at 100 rpm for 2 minutes prior to analysis by LC-MS/MS.
Peak areas were determined from extracted ion chromatograms. Percent parent remaining was calculated from peak area of test compound. The slope value, k, was determined by linear regression of the natural logarithm of percent parent remaining versus incubation time.
The in vitro intrinsic clearance (in vitro CLint in mL/min/10^6 cells) was determined from the slope value using the following equation: […]
where V is the incubation volume (0.25 mL) and N is the number of hepatocytes per well (0.25×10^6 cells).

The nature of data set [2]: Human liver microsomes (HLMs) intrinsic clearance assay. Format: in vitro ADME. As to the method: Human liver microsomes (HLMs) were obtained from Corning (UltraPool 150 donors) at a concentration of 20 mg/mL protein. HLMs were stored at −80° C. until use and prior to use, thawed in a 37° C. water bath and then stored on wet ice. DMSO and NADPH were sourced from Solarbio S&T Co Ltd.
2 mL of 10 mM DMSO stock solutions of test compound were added to 198 mL acetonitrile to produce […] concentration. 1325 mL of 20 mg/mL HLM were added to 22260 mL of phosphate buffer to produce the HLM mixture. An 8.334 mg/mL solution of NADPH was prepared in 100 mmol/L pH 7.4 phosphate buffer.
222.5 mL of the HLM mixture and 25 mL of the 10 mM NADPH were added into the incubation plates (1 mL 96 well deep well plate from Thermo). The mixture was vortexed for 10 seconds at 1000 rpm. The incubation plate was pre-warmed in a water bath at 37° C. for 8 minutes. 2.5 mL of the […] stocks of test compound was added to initiate the reaction. The mix was vortexed for 12 seconds at 1000 rpm and incubated at 37° C. The incubation mixture (250 mL) contained 1 mg/mL HLM, 1 mmol/L NADPH and […].
The reaction was quenched by transferring 20 mL of the incubation mixture at 0.5, 5, 10, 15, 20 and 30 minutes into the quenching plate containing 100 mL of cold stop solution (acetonitrile containing internal standards). The plate was vortexed at 800 rpm for 2 minutes.
The quenching plates were centrifuged for 20 minutes at 4000 rpm and 4° C. 40 mL of the supernatant was transferred into a 96-well analysis plate containing 160 mL of water. The analysis plate was shaken at 1000 rpm for 2 minutes and the samples analysed by LC-MS/MS.
Peak areas were determined from extracted ion chromatograms. Percent parent remaining was calculated from peak area of test compound. The slope value, k, was determined by linear regression of the natural logarithm of percent parent remaining versus incubation time. The in vitro half-life (t1/2) was determined from the slope value by the equation: […]
Conversion of the in vitro half-life (min) into in vitro CLint (mL/min/mg proteins) was completed using the equation: […]

Another data set deals with MOLM-13 cells. Description: Proliferation assay, MOLM-13 (CellTiter-Glo, 7 days). Format: cell-based, human. How it is done:
as §1, §2, §3, §4, §5

The target in the next data set is hERG (Homo sapiens (Human), UniProt Q12809). The experiment in a line: hERG assay 1 (standard), SyncroPatch 384PE. The following applies: CHO cells, room temperature, up to 40 uM. Format: cell-based. As to the method:
Experiments were performed on the SyncroPatch 384PE (Nanion Technologies) high throughput patch clamp platform at room temperature and used medium resistance chips with 4 patch holes per site. hERG-expressing Chinese hamster ovary K1 (CHO) cell line was used in assay-ready format and kept in liquid nitrogen until use. 2 vials of cells (10×10^6 cells per vial) were thawed and added to 20 ml Hepes-buffered saline solution (HBSS). HBSS comprised 140 mM NaCl, 4 mM KCl, 10 mM HEPES and 5 mM Glucose (pH 7.4). The internal patch clamp solution was KF 120 mM, KCl 20 mM, HEPES 10 mM, EGTA 10 mM, and 25 μM Escin (pH 7.2). After the initial sealing process was complete, a seal enhancer solution comprising HBSS supplemented with 10 mM CaCl2 and 1 mM MgCl2 was applied to cells. The external solution was then exchanged (4 times) for external patch clamp solution comprising NaCl 80 mM, KCl 4 mM, HEPES 10 mM, CaCl2 2 mM, MgCl2 1 mM, glucose 5 mM, and NMDG 60 mM (pH7.4). All compounds were dispensed from initial 10 mM DMSO stocks. An industry standard +60/−40 mV voltage protocol was applied every 15 seconds. Compounds were tested in a 6-point cumulative assay (final DMSO concentration 0.33%), with a concentration range of 139 nM to 40 uM. Data were analyzed in Genedata Screener®. IC50 values were determined by plotting % inhibition versus log compound concentration and using a one site dose response model. Only wells that passed acceptance criteria for this platform were used in this analysis (30 MegaOhm seal resistance, Z prime >0.4 and current size >0.2 nA).

Setting [3] is: human, microsomes, 1 µM, pH 7.4.

Molecules are shown by their SMILES. Read-outs that look alike come from different tables or passages of the source.

hERG, sequence (Q12809 whole entry): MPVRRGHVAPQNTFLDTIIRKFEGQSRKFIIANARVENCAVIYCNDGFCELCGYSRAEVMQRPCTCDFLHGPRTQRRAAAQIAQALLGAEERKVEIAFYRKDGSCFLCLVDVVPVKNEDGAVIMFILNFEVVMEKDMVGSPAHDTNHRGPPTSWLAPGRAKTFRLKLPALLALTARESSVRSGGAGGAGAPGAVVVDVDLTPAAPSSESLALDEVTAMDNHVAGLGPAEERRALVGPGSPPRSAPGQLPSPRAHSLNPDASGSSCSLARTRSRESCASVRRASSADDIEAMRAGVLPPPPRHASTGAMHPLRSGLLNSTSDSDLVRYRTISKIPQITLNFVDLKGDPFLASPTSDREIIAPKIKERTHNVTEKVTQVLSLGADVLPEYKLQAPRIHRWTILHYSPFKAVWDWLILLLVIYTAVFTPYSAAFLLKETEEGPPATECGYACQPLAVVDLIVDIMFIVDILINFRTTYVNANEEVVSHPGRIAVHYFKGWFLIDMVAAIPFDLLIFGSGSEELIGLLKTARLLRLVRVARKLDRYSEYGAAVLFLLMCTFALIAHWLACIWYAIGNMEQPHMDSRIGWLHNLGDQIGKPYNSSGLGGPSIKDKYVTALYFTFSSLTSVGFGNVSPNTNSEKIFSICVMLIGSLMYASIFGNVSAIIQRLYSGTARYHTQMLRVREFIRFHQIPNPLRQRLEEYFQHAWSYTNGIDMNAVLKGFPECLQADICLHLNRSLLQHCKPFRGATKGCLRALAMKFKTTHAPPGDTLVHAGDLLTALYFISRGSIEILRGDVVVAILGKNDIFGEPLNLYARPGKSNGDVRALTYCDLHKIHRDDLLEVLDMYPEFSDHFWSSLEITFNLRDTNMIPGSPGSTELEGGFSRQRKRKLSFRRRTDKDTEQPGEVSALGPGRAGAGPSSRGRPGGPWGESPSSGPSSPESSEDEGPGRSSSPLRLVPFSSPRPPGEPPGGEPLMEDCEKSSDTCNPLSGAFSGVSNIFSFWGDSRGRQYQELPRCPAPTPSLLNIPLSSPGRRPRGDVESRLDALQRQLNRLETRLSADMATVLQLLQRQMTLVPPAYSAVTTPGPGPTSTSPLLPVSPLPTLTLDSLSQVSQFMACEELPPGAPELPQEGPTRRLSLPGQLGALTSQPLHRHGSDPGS

`CCN(C(=O)c1cc(F)ccc1-n1c(C)c(C(=O)[C@@H]2CCN(C(=O)[C@@H]3CCC4(CC4)N3)[C@@H](C)C2)c2ccncc21)C(C)C` (single isomer, unassigned) [Example 52-3, N-Ethyl-5-fluoro-N-isopropyl-2-(2-methyl-3-((2R*,4S*)-2-methyl-1-((S)-4-azaspiro[2.4]heptane-5-carbonyl)piperidine-4-carbonyl)-1H-pyrrolo[2,3-c]pyridin-1-yl)benzamide]: the figures for the IC50 on Menin protein, in the data set with HEL cells and in the data set on MOLM-13 cells were 5.95 µM, above 10 µM and 1.47 µM, respectively. Moreover, in data set [1], the “HH CLint” value is 5.7 μl/min/1E6. The “HLM CLint” value in data set [2] (1 mg/mL HLM, NADPH) turned out to be 210 µL/min/mg.

For the compound `Cc1c(C(=O)[C@@H]2CCN(C(=O)[C@H]3NC[C@@H]4C[C@@H]43)[C@@H](C)C2)c2ccncc2n1-c1ccc(F)cc1C(=O)N(CC(F)(F)F)C(C)C` (single isomer, unassigned) [Example 53-2, 2-(3-((2R*,4S*)-1-((1S,2S,5R)-3-Azabicyclo[3.1.0]hexane-2-carbonyl)-2-methylpiperidine-4-carbonyl)-2-methyl-1H-pyrrolo[2,3-c]pyridin-1-yl)-5-fluoro-N-isopropyl-N-(2,2,2-trifluoroethyl)benzamide], the figures for the IC50 at Menin protein, in the data set with HEL cells and with MOLM-13 cells were 7.8 µM, above 10 µM and 1.3 µM, respectively. The “HLM CLint” value in data set [2] (setting [3]) stood at 77 µL/min/mg.

As for `Cc1c(C(=O)C2CCN(C(=O)[C@H]3NC[C@@H]4C[C@@H]43)CC2)c2ccncc2n1-c1ccc(F)cc1C(=O)N(C(C)C)[C@H](C)C(F)(F)F` (single isomer, unassigned) [Example 57-2], the IC50 at Menin protein is above 10 µM; with HEL cells, above 10 µM; against hERG, above 40 µM; in the data set on MOLM-13 cells, above 10 µM. In data set [2] (setting [3]), the “HLM CLint” value worked out at 95 µL/min/mg.

With `[2H]C([2H])([2H])C([2H])(N(C(=O)c1cc(F)ccc1-n1c(C)c(C(=O)C2CCN(C(=O)[C@@H]3CCC(C)(C)N3)CC2)c2ccncc21)C([2H])(C([2H])([2H])[2H])C([2H])([2H])[2H])C([2H])([2H])[2H]` [Example 59, (S)-2-(3-(1-(5,5-Dimethylpyrrolidine-2-carbonyl)piperidine-4-carbonyl)-2-methyl-1H-pyrrolo[2,3-c]pyridin-1-yl)-5-fluoro-N,N-bis(propan-2-yl-d7)benzamide], the half-maximal inhibitory concentration (IC50) was 0.102 µM at Menin protein; above 10 µM with HEL cells (Homo sapiens, HEL, 168 h); above 40 µM against hERG; 0.094 µM in the data set with MOLM-13 cells (Homo sapiens, MOLM-13, 168 h). Also, in data set [2] (human, microsomes, pH 7.4, HLM CLint), the microsomal CLint at 1 µM came out at 59 µL/min/mg.
